From BindingDB's records for doi:10.1016/j.bmcl.2003.08.082 (The University of Huddersfield, 2003) come the findings set out here.

Each structure is given as a SMILES string.

The test deals with Beta-lactamase (Enterobacter cloacae, UniProt P05364). In words: Inhibitor activity against Beta-lactamase, derived from the Gram negative bacteria Enterobacter cloacae at pH 7. The note with it: read-out: kon (M-1-s-1).
Chain of Beta-lactamase (P05364 whole entry): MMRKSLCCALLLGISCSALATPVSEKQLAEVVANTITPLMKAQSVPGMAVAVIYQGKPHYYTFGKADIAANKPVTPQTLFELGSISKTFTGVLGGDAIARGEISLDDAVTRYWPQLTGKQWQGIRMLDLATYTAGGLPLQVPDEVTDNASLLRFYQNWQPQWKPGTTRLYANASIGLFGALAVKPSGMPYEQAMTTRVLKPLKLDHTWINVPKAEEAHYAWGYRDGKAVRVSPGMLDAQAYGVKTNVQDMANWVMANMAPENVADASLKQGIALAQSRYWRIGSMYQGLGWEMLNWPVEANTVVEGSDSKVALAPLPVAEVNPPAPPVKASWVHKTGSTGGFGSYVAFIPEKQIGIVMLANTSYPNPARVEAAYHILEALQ

Turning to `O=C(c1ccccc1)N1CCS1(=O)=O`, the kon (as a rule, a measure of how fast the partners come together) was 163 M⁻¹ s⁻¹. The figure for `CC(C)C1CN(C(=O)c2ccccc2)S1(=O)=O` (configuration not stated) is 0.07 M⁻¹ s⁻¹.
